In patent US20140044797A1, “PROSTACYCLIN AND ANALOGS THEREOF ADMINISTERED DURING SURGERY FOR PREVENTION AND TREATMENT OF CAPILLARY LEAKAGE” (Rigshospitalet, priority 2011, published 2014):

Legend:
[1] = in vivo; cited from earlier work
[2] = epoprostenol sodium compared with iloprost; cited from earlier work
[3] = infusion in doses below 2 ng/kg/minute; cited from earlier work
platelet aggregation = test: Multiplate whole blood impedance aggregometry during Flolan infusion; assay type: in vivo, healthy humans; settings: Flolan 4 ng/kg/min i.v. for 2 h; after 60 and 120 min infusion; any of the agonists investigated (ASPI, COL, TRAP, ADP); 6 volunteers
Text: Multiplate whole blood aggregometry is a platelet function test, (Multiplate®, Dynabyte Medical, Munich, Germany). […] The increase of impedance by the attachment of platelets onto the Multiplate sensors is transformed to arbitrary aggregation units (AU) and plotted against time. The aggregation can then be measured in AUC*min (area under the curve*min) determined by the plot of units against time. Additionally, the aggregation can also be expressed in units (U) (1 unit=10 AU*min). Multiplate thereby allows analyzing the effect of compounds on platelet aggregation. […] Blood samples for whole blood viscoelastical assay (Thrombelastography [TEG]) and whole blood platelet aggregation (Multiplate) was obtained before infusion of Flolan, after 60 min infusion of Flolan and after 120 min infusion of Flolan. Whole blood impedance aggregometry was analyzed by the Multiple Platelet function Analyzer (MultiPlate® analyzer). […]

Protein C = test: Plasma biomarker ELISA after Flolan infusion: Protein C; assay type: in vivo, healthy individuals; settings: 4 ng/kg/min i.v. for 2 h; 8 healthy volunteers; in the hours after ceasing the infusion
Experimental: (§1) Eight healthy volunteers were administered Flolane (Prostacyclin) intravenously at a dose of 4 ng/kg/min for 2 h. Blood samples were analyzed for plasma biomarkers indicative of endothelial cell (thrombomodulin, PAI-1) and glycocalyx (syndecan-1) activation and/or damage, cellular necrosis (histone-complexed DNA fragments, HMGB1) and anticoagulation (protein C, antithrombin, TFPI) at the following time points: Before the infusion (0 h), immediately after ceasing the infusion (2 h) and then 4 h, 5 h, 6 h, 8 h and 24 h after starting the infusion.
(§2) The concentration of the individual biomarkers in plasma was analyzed by commercially available ELISA kits according to the manufactures recommendations. Paired t-tests with p-values <0.05 were considered significant.

PAI-1 = test: Plasma biomarker ELISA after Flolan infusion: PAI-1; assay type: in vivo, healthy individuals; settings: 4 ng/kg/min i.v. for 2 h; 8 healthy volunteers; plasma 0-24 h
Experimental: as §1, §2

antithrombin = test: Plasma biomarker ELISA after Flolan infusion: antithrombin; assay type: in vivo, healthy individuals; settings: 4 ng/kg/min i.v. for 2 h; 8 healthy volunteers; plasma 0-24 h
Experimental: as §1, §2

[4] = system: histone-complexed DNA fragments; test: Plasma biomarker ELISA after Flolan infusion: histone-complexed DNA fragments; assay type: in vivo, healthy individuals; settings: 4 ng/kg/min i.v. for 2 h; 8 healthy volunteers; plasma 0-24 h
Experimental: as §1, §2

thrombomodulin = test: Plasma biomarker ELISA after Flolan infusion: thrombomodulin; assay type: in vivo, healthy individuals; settings: 4 ng/kg/min i.v. for 2 h; 8 healthy volunteers; plasma 0-24 h; effect continuing several hours after ceasing infusion
Experimental: as §1, §2

HMGB1 = test: Plasma biomarker ELISA after Flolan infusion: HMGB1; assay type: in vivo, healthy individuals; settings: 4 ng/kg/min i.v. for 2 h, 8 healthy volunteers
Experimental: as §1, §2

syndecan-1 = test: Plasma biomarker ELISA after Flolan infusion: syndecan-1; assay type: in vivo, healthy individuals; settings: 4 ng/kg/min i.v. for 2 h; 8 healthy volunteers; plasma 0-24 h
Experimental: as §1, §2

blood coagulation = test: Thrombelastography (TEG) of whole blood during Flolan infusion; assay type: in vivo, healthy humans; settings: Flolan 4 ng/kg/min i.v. for 2 h; samples after 60 and 120 min infusion vs baseline; 6 healthy volunteers; kaolin
Text: The TEG analyzer uses a small whole blood sample in a rotating cup and a pin suspended in the blood by a torsion wire, which is monitored for motion. To speed up the clot formation, a standardized amount of an activator of coagulation (e.g. Kaolin, tissue factor) may be added to the cup just before the pin is placed in the cup. The torque of the rotating cup is transmitted to the immersed pin only after fibrin and/or fibrin-platelet bonding has linked the cup and pin together. The strength and rate of these bonds affect the magnitude of the pin motion such that strong clots move the pin directly in phase with cup motion. Thus, the TEG technology documents the interaction of platelets with the protein coagulation cascade from the time of placing the blood in the analyzer until initial fibrin formation, clot rate strengthening and fibrin-platelet bonding via GPIIb/IIIa, through eventual clot lysis. The TEG R parameter reflects the initiation phase, reaction time, from start of coagulation until the first fibrin band is formed; the Angle (α) represents the increase in clot strength, clot kinetics, correlating with the thrombin generation. The maximal amplitude (MA) parameter reflects maximal clot strength i.e. the maximal elastic modus of the clot.
Six healthy volunteers were administered Flolan (prostacyclin analog) intravenously at a dose of 4 ng/kg/min for 2 h. Blood samples for whole blood viscoelastical assay (Thrombelastography [TEG]) and whole blood platelet aggregation (Multiplate) was obtained before infusion of Flolan, after 60 min infusion of Flolan and after 120 min infusion of Flolan.
With regard to the TEG assay this was performed as recommended by the manufacturer and 340 μl are mixed with 20 μl CaCl 0.2 M (final concentration 11.1 mM in the cup) and kaolin at 37° C. after which the haemostatic activity was recorded as shown in WO 2010/075861.

TFPI = test: Plasma biomarker ELISA after Flolan infusion: TFPI; assay type: in vivo, healthy individuals; settings: 4 ng/kg/min i.v. for 2 h; 8 healthy volunteers; plasma 0-24 h
Experimental: as §1, §2

## CCCCC[C@H](O)CC[C@@H]1[C@H]2Cc3cccc(OCC(=O)O)c3C[C@H]2C[C@H]1O [treprostinil]
[1]
  half time: less than 4 hours

## CC#CCC(C)[C@H](O)/C=C/[C@@H]1[C@H]2c3cccc(CCCC(=O)O)c3O[C@H]2C[C@H]1O (mixture of isomers) [beraprost]
[1]
  half time: 35 to 40 min

## CC#CCC(C)[C@H](O)/C=C/[C@@H]1[C@H]2C/C(=C/CCCC(=O)O)C[C@H]2C[C@H]1O (stereo partly shown) [iloprost]
[2]
  relative potency: equipotent
[1]
  half time: 20 to 30 min

## CCCCC[C@H](O)/C=C/[C@@H]1[C@H]2C/C(=C/CCCC(=O)O)O[C@H]2C[C@H]1O [Flolan, epoprostenol sodium]
[3]
  duration of hypotensive episodes: 1 to 2 h
  side effects: bleeding tendency: no bleeding tendency
  side effects: hypotensive episodes: a few self-limiting hypotensive episodes
[2]
  relative potency: equipotent
Platelet aggregation
  Multiplate values vs baseline: no significant difference
Protein C
  circulating level of Protein C: decreased
PAI-1
  circulating level of PAI-1: declined
antithrombin
  circulating level of antithrombin: decreased
[4]
  cell necrosis biomarker histone-complexed DNA fragments: did not influence
thrombomodulin
  circulating level of thrombomodulin: marked decrease
HMGB1; 5 h after starting infusion, p=0.056
  HMGB1 at 5 h: tendency towards a reduction
HMGB1; plasma 0-24 h
  cell necrosis biomarker HMGB1: did not influence
syndecan-1
  glycocalyx shedding (syndecan-1): did not induce or influence
Blood coagulation
  TEG Angle vs baseline: No significant difference
  TEG MA vs baseline: No significant difference
  TEG R vs baseline: No significant difference
TFPI
  circulating level of TFPI: did not induce or influence glycocalyx shedding (syndecan-1) (FIG. 6A) or affected the circulating level of TFPI
[1]
  half time: 0.5 to 3 min
